Assay results from PMC7421780 (Future Medicinal Chemistry, 2020).
Converted amounts (≈) assume the structure as drawn. Read-outs that look alike come from different tables or passages of the source.

Experiments:
Mtb H37Rv [1] = test: Primary screen: MIC, IC50 and IC90 under aerobic conditions; type: cell-based; settings: Mycobacterium tuberculosis
physchem = settings: aqueous with cosolvent or surfactant or cyclodextrin, kinetic from dmso stock
Mtb H37Rv [2] = test: Secondary assay: MIC, IC50 and IC90 repeated at lower starting concentrations; type: cell-based; settings: Mycobacterium tuberculosis; for MIC: read-out: MIC aerobic condition
NRP Mtb H37Rv = test: microbe, parasite or virus in culture; type: cell-based; settings: Mycobacterium tuberculosis
intracellular Mtb H37Rv = test: microbe, parasite or virus in culture; type: cell-based; settings: Mycobacterium tuberculosis; for IC50: THP-1, read-out: IC50 intracell; for IC90: THP-1, read-out: IC90 intracell
in vitro [3] = settings: human
Mtb H37Rv [4] = test: Minimal bactericidal concentration; type: cell-based, Mycobacterium tuberculosis; settings: Mtb H37Rv aerobic
Mycobacterium avium = test: MIC against nontuberculous mycobacteria, Alamar blue; type: cell-based; settings: Mycobacterium avium
Mycobacterium abscessus = test: MIC, IC50, IC90 against nontuberculous mycobacteria; type: cell-based; settings: for IC50 / IC90 / MIC: Mycobacteroides abscessus
[5] = In vitro microsomal stability assay; settings: Human, 1 μM
[6] = Human plasma, equilibrium dialysis
in vitro [7] = settings: human; remark: listed apart in the source
[8] = Caco-2 cell monolayer permeability assay; settings: human
HepG2 cytotoxicity = type: cell-based; settings: human, HepG2 cells

c1cc(Cn2ccnc2)nc(Cn2ccnc2)c1 [Compound 2a, 2,6-bis((1H-imidazol-1-yl)methyl)pyridine]
IC50 (Mtb H37Rv [1]): > 200 µM | IC90 (Mtb H37Rv [1]): > 200 µM | MIC (Mtb H37Rv [1]): > 200 µM | solubility (physchem): > 200 µM

O=[N+]([O-])c1cn(Cc2cccc(Cn3cnc([N+](=O)[O-])c3)n2)cn1 [Compound 2b, 2,6-bis((4-nitro-1H-imidazol-1-yl)methyl)pyridine]
IC50 (Mtb H37Rv [1]): 77 µM | IC90 (Mtb H37Rv [1]): 100 µM | MIC (Mtb H37Rv [1]): 92 µM (≈ 30.3 µg/mL) | IC50 (Mtb H37Rv [2]): 93 µM | IC90 (Mtb H37Rv [2]): 100 µM | MIC (Mtb H37Rv [2]): 101 µM (≈ 33.3 µg/mL) | IC50 (NRP Mtb H37Rv; Low oxygen): 26 µM | IC90 (NRP Mtb H37Rv; Low oxygen): 91 µM | MIC (NRP Mtb H37Rv; Low oxygen): 200 µM (≈ 65.9 µg/mL) | IC50 (NRP Mtb H37Rv; Normal oxygen): > 200 µM | IC90 (NRP Mtb H37Rv; Normal oxygen): > 200 µM | MIC (NRP Mtb H37Rv; Normal oxygen): > 200 µM | IC50 (intracellular Mtb H37Rv): > 200 µM | IC90 (intracellular Mtb H37Rv): > 200 µM | IC50 (in vitro [3]): > 50 µM

COC(=O)C[n+]1ccn(Cc2cccc(Cn3cc[n+](CC(=O)OC)c3)n2)c1 [Compound 4a, 1,1′-(pyridine-2,6-diylbis(methylene))bis(3-(2-methoxy-2-oxoethyl)-1H-imidazol-3-ium) bromide]
IC50 (Mtb H37Rv [1]): > 200 µM | IC90 (Mtb H37Rv [1]): > 200 µM | MIC (Mtb H37Rv [1]): > 200 µM

NC(=O)C[n+]1ccn(Cc2cccc(Cn3cc[n+](CC(N)=O)c3)n2)c1 [Compound 4b, 1,1′-(pyridine-2,6-diylbis(methylene))bis(3-(2-amino-2-oxoethyl)-1H-imidazol-3-ium) iodide]
IC50 (Mtb H37Rv [1]): > 200 µM | IC90 (Mtb H37Rv [1]): > 200 µM | MIC (Mtb H37Rv [1]): > 200 µM

O=C(C[n+]1ccn(Cc2cccc(Cn3cc[n+](CC(=O)c4ccccc4)c3)n2)c1)c1ccccc1 [Compound 4c, 1,1′-(pyridine-2,6-diylbis(methylene))bis(3-(2-oxo-2-phenylethyl)-1H-imidazol-3-ium) bromide]
IC50 (Mtb H37Rv [1]): > 200 µM | IC90 (Mtb H37Rv [1]): > 200 µM | MIC (Mtb H37Rv [1]): > 200 µM

O=C(C[n+]1ccn(Cc2cccc(Cn3cc[n+](CC(=O)c4ccc(Cl)cc4)c3)n2)c1)c1ccc(Cl)cc1 [Compound 4e, 1,1′-(pyridine-2,6-diylbis(methylene))bis(3-(2-(4-chlorophenyl)-2-oxoethyl)-1H-imidazol-3-ium) bromide]
IC50 (Mtb H37Rv [1]): 34 µM | IC90 (Mtb H37Rv [1]): 63 µM | MIC (Mtb H37Rv [1]): 51 µM

O=C(C[n+]1ccn(Cc2cccc(Cn3cc[n+](CC(=O)c4ccc([N+](=O)[O-])cc4)c3)n2)c1)c1ccc([N+](=O)[O-])cc1.[Br-].[Br-] [Compound 4f, 1,1′-(pyridine-2,6-diylbis(methylene))bis(3-(2-(4-nitrophenyl)-2-oxoethyl)-1H-imidazol-3-ium) bromide]
IC50 (Mtb H37Rv [1]): 38 µM | IC90 (Mtb H37Rv [1]): 71 µM | MIC (Mtb H37Rv [1]): 58 µM | IC50 (Mtb H37Rv [2]): 45 µM | IC90 (Mtb H37Rv [2]): 140 µM | MIC (Mtb H37Rv [2]): 104 µM | mechanism of action (bacteriostatic or bactericidal) (Mtb H37Rv [4]): bactericidal | IC50 (NRP Mtb H37Rv; Low oxygen): 25 µM | IC90 (NRP Mtb H37Rv; Low oxygen): 65 µM | MIC (NRP Mtb H37Rv; Low oxygen): 183 µM | IC50 (NRP Mtb H37Rv; Normal oxygen): 49 µM | IC90 (NRP Mtb H37Rv; Normal oxygen): 78 µM | MIC (NRP Mtb H37Rv; Normal oxygen): 129 µM | MIC (Mycobacterium avium): > 200 µM | activity against M. abscessus (in words) (Mycobacterium abscessus): showed activity | IC50 (Mycobacterium abscessus): 89 µM | IC90 (Mycobacterium abscessus): 97 µM | MIC (Mycobacterium abscessus): 110 µM | IC50 (intracellular Mtb H37Rv): 26 µM | IC90 (intracellular Mtb H37Rv): 48 µM | IC50 (in vitro [3]): > 50 µM

COc1ccc(C(=O)C[n+]2ccn(Cc3cccc(Cn4cc[n+](CC(=O)c5ccc(OC)cc5)c4)n3)c2)cc1 [Compound 4g, 1,1′-(pyridine-2,6-diylbis(methylene))bis(3-(2-(4-methoxyphenyl)-2-oxoethyl)-1H-imidazol-3-ium) bromide]
IC50 (Mtb H37Rv [1]): 160 µM | IC90 (Mtb H37Rv [1]): > 200 µM | MIC (Mtb H37Rv [1]): > 200 µM

c1cc(Cn2cnc3ccccc32)nc(Cn2cnc3ccccc32)c1 [Compound 5, 2,6-bis((1H-benzo[d]imidazol-1-yl)methyl)pyridine]
IC50 (Mtb H37Rv [1]): 43 µM | IC90 (Mtb H37Rv [1]): > 50 µM | MIC (Mtb H37Rv [1]): > 50 µM | IC50 (Mtb H37Rv [2]): > 50 µM | IC90 (Mtb H37Rv [2]): > 50 µM | MIC (Mtb H37Rv [2]): > 50 µM | IC50 (NRP Mtb H37Rv; Low oxygen): > 50 µM | IC90 (NRP Mtb H37Rv; Low oxygen): > 50 µM | MIC (NRP Mtb H37Rv; Low oxygen): > 50 µM | IC50 (NRP Mtb H37Rv; Normal oxygen): > 50 µM | IC90 (NRP Mtb H37Rv; Normal oxygen): > 50 µM | MIC (NRP Mtb H37Rv; Normal oxygen): > 50 µM | IC50 (intracellular Mtb H37Rv): > 200 µM | IC90 (intracellular Mtb H37Rv): > 200 µM | solubility (physchem): > 200 µM | IC50 (in vitro [3]): > 50 µM

COC(=O)C[n+]1cn(Cc2cccc(Cn3c[n+](CC(=O)OC)c4ccccc43)n2)c2ccccc21 [Compound 6a, 1,1′-(pyridine-2,6-diylbis(methylene))bis(3-(2-methoxy-2-oxoethyl)-1H-benzo[d]imidazol-3-ium) bromide]
IC50 (Mtb H37Rv [1]): > 200 µM | IC90 (Mtb H37Rv [1]): > 200 µM | MIC (Mtb H37Rv [1]): > 200 µM

NC(=O)C[n+]1cn(Cc2cccc(Cn3c[n+](CC(N)=O)c4ccccc43)n2)c2ccccc21 [Compound 6b, 1,1′-(pyridine-2,6-diylbis(methylene))bis(3-(2-amino-2-oxoethyl)-1H-benzo[d]imidazol-3-ium) iodide]
IC50 (Mtb H37Rv [1]): 180 µM | IC90 (Mtb H37Rv [1]): > 200 µM | MIC (Mtb H37Rv [1]): > 200 µM

O=C(C[n+]1cn(Cc2cccc(Cn3c[n+](CC(=O)c4ccccc4)c4ccccc43)n2)c2ccccc21)c1ccccc1.[Br-].[Br-] [Compound 6c, 1,1′-(pyridine-2,6-diylbis(methylene))bis(3-(2-oxo-2-phenylethyl)-1H-benzo[d]imidazol-3-ium) bromide]
IC50 (Mtb H37Rv [1]): 25 µM | IC90 (Mtb H37Rv [1]): 60 µM | MIC (Mtb H37Rv [1]): 56 µM | IC50 (Mtb H37Rv [2]): 34 µM | IC90 (Mtb H37Rv [2]): 110 µM | MIC (Mtb H37Rv [2]): 87 µM | mechanism of action (bacteriostatic or bactericidal) (Mtb H37Rv [4]): bactericidal | IC50 (NRP Mtb H37Rv; Low oxygen): 16 µM | IC90 (NRP Mtb H37Rv; Low oxygen): 130 µM | MIC (NRP Mtb H37Rv; Low oxygen): 200 µM | IC50 (NRP Mtb H37Rv; Normal oxygen): 17 µM | IC90 (NRP Mtb H37Rv; Normal oxygen): 60 µM | MIC (NRP Mtb H37Rv; Normal oxygen): > 200 µM | MIC (Mycobacterium avium): > 200 µM | activity against M. abscessus (in words) (Mycobacterium abscessus): showed activity | IC50 (Mycobacterium abscessus): 120 µM | IC90 (Mycobacterium abscessus): 200 µM | MIC (Mycobacterium abscessus): > 200 µM | IC50 (intracellular Mtb H37Rv): 37 µM | IC90 (intracellular Mtb H37Rv): > 50 µM | IC50 (in vitro [3]): > 50 µM

O=C(C[n+]1cn(Cc2cccc(Cn3c[n+](CC(=O)c4ccc(Cl)cc4)c4ccccc43)n2)c2ccccc21)c1ccc(Cl)cc1 [Compound 6e, 1,1′-(pyridine-2,6-diylbis(methylene))bis(3-(2-(4-chlorophenyl)-2-oxoethyl)-1H-benzo[d]imidazol-3-ium) bromide]
IC50 (Mtb H37Rv [1]): 7.9 µM | IC90 (Mtb H37Rv [1]): 18 µM | MIC (Mtb H37Rv [1]): 17 µM

COc1ccc(C(=O)C[n+]2cn(Cc3cccc(Cn4c[n+](CC(=O)c5ccc(OC)cc5)c5ccccc54)n3)c3ccccc32)cc1 [Compound 6g, 1,1′-(pyridine-2,6-diylbis(methylene))bis(3-(2-(4-methoxyphenyl)-2-oxoethyl)-1H-benzo[d]imidazol-3-ium) bromide]
MIC (Mtb H37Rv [1]): 58 µM

COc1ccc2c(c1)[C@]13CCCC[C@@H]1[C@H](C2)N(C)CC3 [Dextromethorphan, reference compound]
NADPH-free CLint [5]: <12.8 µL/min/mg | NADPH-free T1/2 [5]: >3 h

NNC(=O)c1ccncc1 [Isoniazid, reference compound]
IC50 (intracellular Mtb H37Rv): 0.23 µM | IC90 (intracellular Mtb H37Rv): 0.29 µM

Cc1ncc([N+](=O)[O-])n1CCO [Metronidazole, reference compound]
IC50 (NRP Mtb H37Rv; Low oxygen): 29 µM | IC90 (NRP Mtb H37Rv; Low oxygen): 110 µM | MIC (NRP Mtb H37Rv; Low oxygen): 200 µM (≈ 34.2 µg/mL) | IC50 (NRP Mtb H37Rv; Normal oxygen): > 200 µM | IC90 (NRP Mtb H37Rv; Normal oxygen): > 200 µM | MIC (NRP Mtb H37Rv; Normal oxygen): > 200 µM

CC(C)NCC(O)COc1cccc2ccccc12 (centres unmarked) [Propranolol, reference compound]
Mean plasma fraction bound [6]: 79.3% | recovery (in vitro [7]): 93% | fraction unbound (in vitro [7]; plasma): 0.207 | Papp B→A ([8]; Caco-2): 25 ×10⁻⁶ cm/s | Papp A→B ([8]; Caco-2, Mean A→B Papp, Caco-2, apical to basal): 12.7 ×10⁻⁶ cm/s

CO[C@H]1/C=C/O[C@@]2(C)Oc3c(C)c(O)c4c(O)c(c(/C=N/N5CCN(C)CC5)c(O)c4c3C2=O)NC(=O)/C(C)=C\C=C\[C@H](C)[C@H](O)[C@@H](C)[C@@H](O)[C@@H](C)[C@H](OC(C)=O)[C@@H]1C [Rifampicin, reference compound]
IC50 (Mtb H37Rv [2]): 0.004 µM | IC90 (Mtb H37Rv [2]): 0.0077 µM | MIC (Mtb H37Rv [2]): 0.0063 µM (≈ 0.00518 µg/mL) | IC50 (NRP Mtb H37Rv; Low oxygen): 0.0041 µM | IC90 (NRP Mtb H37Rv; Low oxygen): 0.0065 µM | MIC (NRP Mtb H37Rv; Low oxygen): 0.13 µM (≈ 0.107 µg/mL) | MIC (NRP Mtb H37Rv; Normal oxygen): 0.096 µM (≈ 0.079 µg/mL) | MIC (Mycobacterium avium): > 200 µM | IC50 (Mycobacterium abscessus): 2.1 µM | IC90 (Mycobacterium abscessus): 3.1 µM | MIC (Mycobacterium abscessus): 3.3 µM (≈ 2.72 µg/mL)

CN[C@@H]1C[C@H]2O[C@@](C)([C@@H]1OC)n1c3ccccc3c3c4c(c5c6ccccc6n2c5c31)C(=O)NC4 [Staurosporine, reference compound]
IC50 at 72 h (HepG2 cytotoxicity): 0.0086 µM | IC50 (in vitro [3]): 0.018 µM

CC(=O)CC(c1ccccc1)c1c(O)c2ccccc2oc1=O (centres unmarked) [Warfarin]
recovery [6]: 96.7
